Laboratory results: patent US6977262B2, “Dihydropyrazolopyridine compounds and pharmaceutical use thereof” (Mitsubishi Pharma Corporation, priority 2001, dated 2005)
Where a name gives a salt, the structure may show the parent alone.

**Q.** Which melting point does the source give for `CC(C)(C)C1=C(C#N)C(c2cccc(C#N)c2Br)c2c[nH]nc2N1` (stereo not shown) [Example 319, 4-(2-Bromo-3-cyanophenyl)-6-t-butyl-5-cyano-4,7-dihydro-2H-pyrazolo[3,4-b]pyridine] here?
**A.** 251 °C

**Q.** With `CCCC1=C(C(=O)OCC)C(c2ccccc2OCC)c2c[nH]nc2N1` (stereo not shown) [Example 33, Ethyl 4-(2-ethoxyphenyl)-4,7-dihydro-6-propyl-2H-pyrazolo[3,4-b]pyridine-5-carboxylate] as the molecule, how does the melting point read?
**A.** 203 °C

**Q.** Which melting point does the source give for `CCCC1=C(C(=O)OCC)C(c2ccccc2C)c2c[nH]nc2N1` (stereo not shown) [Example 30, Ethyl 4,7-dihydro-4-(2-methylphenyl)-6-propyl-2H-pyrazolo[3,4-b]pyridine-5-carboxylate] here?
**A.** 178 °C

**Q.** Which melting point does the source give for `CN1CC=C(C2=C(C#N)C(c3cccc(C#N)c3Br)c3c[nH]nc3N2)CC1` (stereo not shown) [Example 1048, 4-(2-Bromo-3-cyanophenyl)-5-cyano-4,7-dihydro-6-(1-methyl-1,2,3,6-tetrahydropyridin-4-yl)-2H-pyrazolo[3,4-b]pyridine] here?
**A.** 233 °C

**Q.** For `N#CC1=C(C2CCNC2)Nc2n[nH]cc2C1c1ccccc1Cl` (stereo not shown) [Example 1086, 4-(2-Chlorophenyl)-5-cyano-4,7-dihydro-6-(pyrrolidin-3-yl)-2H-pyrazolo[3,4-b]pyridine], which melting point is on record?
**A.** 210 to 215 °C (dec.)

**Q.** With `CCCC1=C(C(=O)OCC)C(c2ccco2)c2c[nH]nc2N1.O=C(O)/C=C\C(=O)O` (stereo not shown) [Example 59, Ethyl 4-(furan-2-yl)-4,7-dihydro-6-propyl-2H-pyrazolo[3,4-b]pyridine-5-carboxylate maleate] as the molecule, how does the melting point read?
**A.** 108 to 111 °C

**Q.** With `CCCC1=C(C#N)C(c2cccc(C)c2[N+](=O)[O-])c2c[nH]nc2N1` (stereo not shown) [Example 338, 5-Cyano-4,7-dihydro-4-(3-methyl-2-nitrophenyl)-6-propyl-2H-pyrazolo[3,4-b]pyridine] as the molecule, how does the melting point read?
**A.** 250 °C

**Q.** With `COc1cccc(C2=C(C#N)C(c3cccc4nonc34)c3c[nH]nc3N2)c1` (stereo not shown) [Example 160, 4-(2,1,3-Benzoxadiazol-4-yl)-5-cyano-4,7-dihydro-6-(3-methoxyphenyl)-2H-pyrazolo[3,4-b]pyridine] as the molecule, how does the melting point read?
**A.** 198 °C

**Q.** Which melting point does the source give for `CCCC1=C(C(=O)OCC)C(c2cccc3ccsc23)c2c[nH]nc2N1` (stereo not shown) [Example 106, Ethyl 4-(benzo[b]thiophen-7-yl)-4,7-dihydro-6-propyl-2H-pyrazolo[3,4-b]pyridine-5-carboxylate] here?
**A.** 166 °C

**Q.** Which melting point does the source give for `CCCC1=C(C(=O)OCC)C(c2ccnc3ccccc23)c2c[nH]nc2N1` (stereo not shown) [Example 74, Ethyl 4,7-dihydro-6-propyl-4-(quinolin-4-yl)-2H-pyrazolo[3,4-b]pyridine-5-carboxylate] here?
**A.** 198 °C

**Q.** With `N#CC1=C(C2CCN(C(=O)c3ccccc3)CC2)Nc2n[nH]cc2C1c1cccc2nonc12` (stereo not shown) [Example 1026, 4-(2,1,3-Benzoxadiazol-4-yl)-6-(1-benzoylpiperidin-4-yl)-5-cyano-4,7-dihydro-2H-pyrazolo[3,4-b]pyridine] as the molecule, how does the melting point read?
**A.** 228 °C

**Q.** Which melting point does the source give for `CNCCC1=C(C#N)C(c2cccc3nonc23)c2c[nH]nc2N1` (stereo not shown) [Example 1016, 4-(2,1,3-Benzoxadiazol-4-yl)-5-cyano-4,7-dihydro-6-(2-(N-methylamino)ethyl)-2H-pyrazolo[3,4-b]pyridine] here?
**A.** 174 °C

**Q.** Which melting point does the source give for `CCCC1=C([N+](=O)[O-])C(c2ccccc2SC)c2c[nH]nc2N1` (stereo not shown) [Example 120, 4,7-Dihydro-4-(2-methylthiophenyl)-5-nitro-6-propyl-2H-pyrazolo[3,4-b]pyridine] here?
**A.** 211 °C

**Q.** For `Cl.Cl.Cl.N#CC1=C(CN2CCN(c3ccccc3)CC2)Nc2n[nH]cc2C1c1ccccc1Cl` (stereo not shown), which melting point is on record?
**A.** 217 to 220 °C (dec.)

**Q.** Which melting point does the source give for `CCOC(=O)C1=C(C(F)(F)F)Nc2n[nH]cc2C1c1ccc(OC)cc1` (stereo not shown) [Example 19, Ethyl 4,7-dihydro-4-(4-methoxyphenyl)-6-trifluoromethyl-2H-pyrazolo[3,4-b]pyridine-5-carboxylate] here?
**A.** 159 to 161 °C

**Q.** With `CC1=C([N+](=O)[O-])C(c2cccc(Cl)c2Cl)c2c[nH]nc2N1` (stereo not shown) [Example 125, 4-(2,3-Dichlorophenyl)-4,7-dihydro-6-methyl-5-nitro-2H-pyrazolo[3,4-b]pyridine] as the molecule, how does the melting point read?
**A.** > 270 °C

**Q.** Which melting point does the source give for `CCCC1=C(C(=O)OCC)C(c2ccccc2OC)c2c[nH]nc2N1` (stereo not shown) [Example 32, Ethyl 4,7-dihydro-4-(2-methoxyphenyl)-6-propyl-2H-pyrazolo[3,4-b]pyridine-5-carboxylate] here?
**A.** 169 °C

**Q.** With `Cc1ccccc1C1C(C#N)=C(c2cccs2)Nc2n[nH]cc21` (stereo not shown) [Example 249, 5-Cyano-4,7-dihydro-4-(2-methylphenyl)-6-(thiophen-2-yl)-2H-pyrazolo[3,4-b]pyridine] as the molecule, how does the melting point read?
**A.** 276 °C

**Q.** For `CCCC1=C([N+](=O)[O-])C(c2cccc3c2OCCC3)c2c[nH]nc2N1` (stereo not shown) [Example 124, 4,7-Dihydro-4-(3,4-dihydro-2H-benzopyran-8-yl)-5-nitro-6-propyl-2H-pyrazolo[3,4-b]pyridine], which melting point is on record?
**A.** 234 °C

**Q.** For `N#CC1=C(c2ccccc2)Nc2n[nH]cc2C1c1cccc(C#N)c1Br` (stereo not shown) [Example 147, 4-(2-Bromo-3-cyanophenyl)-5-cyano-4,7-dihydro-6-phenyl-2H-pyrazolo[3,4-b]pyridine], which melting point is on record?
**A.** > 270 °C

**Q.** With `N#CC1=C(C2CCCC2)Nc2n[nH]cc2C1c1cccc2nonc12` (stereo not shown) [Example 318, 4-(2,1,3-Benzoxadiazol-4-yl)-5-cyano-6-cyclopentyl-4,7-dihydro-2H-pyrazolo[3,4-b]pyridine] as the molecule, how does the melting point read?
**A.** 193 °C

**Q.** Which melting point does the source give for `CC(C)(C)C1=C(C#N)C(c2ccccc2Cl)c2c[nH]nc2N1` (stereo not shown) [Example 307, 6-t-Butyl-4-(2-chlorophenyl)-5-cyano-4,7-dihydro-2H-pyrazolo[3,4-b]pyridine] here?
**A.** 198 °C

**Q.** Which melting point does the source give for `N#CC1=C(C2CCNCC2)Nc2n[nH]cc2C1c1ccccc1Cl` (stereo not shown) [Example 1055, 4-(2-Chlorophenyl)-5-cyano-4,7-dihydro-6-(piperidin-4-yl)-2H-pyrazolo[3,4-b]pyridine] here?
**A.** 221 °C

**Q.** Which melting point does the source give for `CCCCC1=C(C(=O)OCC)C(c2cccc3nonc23)c2c[nH]nc2N1` (stereo not shown) [Example 239, Ethyl 4-(2,1,3-benzoxadiazol-4-yl)-6-butyl-4,7-dihydro-2H-pyrazolo[3,4-b]pyridine-5-carboxylate] here?
**A.** 213 °C

**Q.** With `COc1ccc(C2=C(C#N)C(c3cccc4nsnc34)c3c[nH]nc3N2)cc1` (stereo not shown) [Example 165, 4-(2,1,3-Benzothiadiazol-4-yl)-5-cyano-4,7-dihydro-6-(4-methoxyphenyl)-2H-pyrazolo[3,4-b]pyridine] as the molecule, how does the melting point read?
**A.** 238 °C

**Q.** For `CCOC(=O)C1=C(C(F)(F)F)Nc2n[nH]cc2C1c1cccc2ccccc12` (stereo not shown) [Example 24, Ethyl 4,7-dihydro-4-(1-naphthyl)-6-trifluoromethyl-2H-pyrazolo[3,4-b]pyridine-5-carboxylate], which melting point is on record?
**A.** 119 to 120 °C

**Q.** For `N#CC1=C(C2CCCC2)Nc2n[nH]cc2C1c1cccc(C#N)c1Br` (stereo not shown) [Example 317, 4-(2-Bromo-3-cyanophenyl)-5-cyano-6-cyclopentyl-4,7-dihydro-2H-pyrazolo[3,4-b]pyridine], which melting point is on record?
**A.** 247 °C

**Q.** For `N#CC1=C(C2CCCN2)Nc2n[nH]cc2C1c1cccc(C#N)c1Br` (stereo not shown) [Example 1068, 4-(2-Bromo-3-cyanophenyl)-5-cyano-6-(pyrrolidin-2-yl)-4,7-dihydro-2H-pyrazolo[3,4-b]pyridine], which melting point is on record?
**A.** > 240 °C

**Q.** For `N#CC1=C(c2cccs2)Nc2n[nH]cc2C1c1ccccc1[N+](=O)[O-]` (stereo not shown) [Example 244, 5-Cyano-4,7-dihydro-4-(2-nitrophenyl)-6-(thiophen-2-yl)-2H-pyrazolo[3,4-b]pyridine], which melting point is on record?
**A.** 165 °C

**Q.** Which melting point does the source give for `CCCC1=C(C#N)C(c2cccc([N+](=O)[O-])c2Cl)c2c[nH]nc2N1` (stereo not shown) [Example 185, 4-(2-Chloro-3-nitrophenyl)-5-cyano-4,7-dihydro-6-propyl-2H-pyrazolo[3,4-b]pyridine] here?
**A.** 234 to 235 °C

**Q.** For `CCOC(=O)C1=C(c2ccc(OC)cc2)Nc2n[nH]cc2C1c1ccccc1Cl` (stereo not shown) [Example 86, Ethyl 4-(2-chlorophenyl)-4,7-dihydro-6-(4-methoxyphenyl)-2H-pyrazolo[3,4-b]pyridine-5-carboxylate], which melting point is on record?
**A.** 211 °C

**Q.** With `CCN1CCC(C2=C(C#N)C(c3cccc4nonc34)c3c[nH]nc3N2)CC1` (stereo not shown) [Example 1033, 4-(2,1,3-Benzoxadiazol-4-yl)-5-cyano-4,7-dihydro-6-(1-ethylpiperidin-4-yl)-2H-pyrazolo[3,4-b]pyridine] as the molecule, how does the melting point read?
**A.** 231 °C

**Q.** Which melting point does the source give for `CC(=O)N1CC=C(C2=C(C#N)C(c3cccc4nonc34)c3c[nH]nc3N2)CC1` (stereo not shown) [Example 1027, 6-(1-Acetyl-1,2,3,6-tetrahydropyridin-4-yl)-4-(2,1,3-benzoxadiazol-4-yl)-5-cyano-4,7-dihydro-2H-pyrazolo[3,4-b]-pyridine] here?
**A.** 237 °C

**Q.** Which melting point does the source give for `N#CC1=C(C2CCCNC2)Nc2n[nH]cc2C1c1cccc(C#N)c1Br.O=C(O)C(F)(F)F` (stereo not shown) here?
**A.** 225 °C

**Q.** Which melting point does the source give for `CCOC(=O)C1=C(C(F)(F)F)Nc2n[nH]cc2C1c1ccccc1Cl.O=C(O)/C=C\C(=O)O` (stereo not shown) [Example 14, Ethyl 4-(2-chlorophenyl)-4,7-dihydro-6-trifluoromethyl-2H-pyrazolo[3,4-b]pyridine-5-carboxylate maleate] here?
**A.** 171 to 172 °C

**Q.** With `CCCC1=C(C#N)C(c2ccccc2[N+](=O)[O-])c2c[nH]nc2N1` (stereo not shown) [Example 132, 5-Cyano-4,7-dihydro-4-(2-nitrophenyl)-6-propyl-2H-pyrazolo[3,4-b]pyridine] as the molecule, how does the melting point read?
**A.** 216 °C

**Q.** With `CCCC1=C(C(=O)OCC)C(c2cccc(C)c2OC)c2c[nH]nc2N1` (stereo not shown) [Example 190, Ethyl 4,7-dihydro-4-(2-methoxy-3-methylphenyl)-6-propyl-2H-pyrazolo[3,4-b]pyridine-5-carboxylate] as the molecule, how does the melting point read?
**A.** 220 to 222 °C

**Q.** With `COc1ccc(C2=C(C#N)C(c3ccccc3Cl)c3c[nH]nc3N2)cc1` (stereo not shown) [Example 95, 4-(2-Chlorophenyl)-5-cyano-4,7-dihydro-6-(4-methoxyphenyl)-2H-pyrazolo[3,4-b]pyridine] as the molecule, how does the melting point read?
**A.** 124 °C

**Q.** With `CC1=C(C(=O)OC(C)(C)C)C(c2ccccc2Cl)c2c[nH]nc2N1` (stereo not shown) [Example 5, t-Butyl 4-(2-chlorophenyl)-4,7-dihydro-6-methyl-2H-pyrazolo[3,4-b]pyridine-5-carboxylate] as the molecule, how does the melting point read?
**A.** 207 °C

**Q.** For `CN1CCC(C2=C(C#N)C(c3ccccc3Cl)c3c[nH]nc3N2)CC1` (stereo not shown) (as salt: trifluoroacetate) [Example 1056, 4-(2-Chlorophenyl)-5-cyano-4,7-dihydro-6-(1-methylpiperidin-4-yl)-2H-pyrazolo[3,4-b]pyridine], which melting point is on record?
**A.** > 270 °C
